The values that follow come from US20200179331A1, “Peptide-Artesunate Conjugates as Targeted Anti-Cancer Agents” (priority 2017, published 2020).

pIC50: −log10 of the molar value. Like-named read-outs stand apart in the source and are kept apart here. Residues, ends and D or L forms follow the SMILES beside them. *: point of attachment. X1 = C[C@H]1[C@H](OC(=O)CCC(=O)*)O[C@@H]2O[C@@]3(C)CC[C@H]4[C@H](C)CC[C@@H]1[C@@]24OO3

Series [1] is described as follows: MTT assay, CCD-18 cells (HER2-negative normal colon). To be noted: human, CCD-18 cells (normal colon, HER2-negative). As to the method: (§1) CCD-18 cells were maintained in Dulbecco's minimal essential medium (DMEM, ATCC) supplemented with 10% fetal bovine serum (FBS, ATCC), 100 U/ml penicillin G, and 100 μg/ml streptomycin at 37° C. in a humid atmosphere of 5% CO2 atmosphere. Caco-2 cells were maintained in Dulbecco's minimal essential medium (DMEM, ATCC) supplemented with 20% fetal bovine serum (FBS,ATCC), 100 U/ml penicillin G, and 100 μg/ml streptomycin at 37° C. in a humid atmosphere of 5% CO2 atmosphere; culture medium was replaced with a fresh medium every 2-3 days. All experiments were performed with actively growing cells in logarithmic growth phase.
The assay was carried out following a reported procedure. In brief, approximately 1,000 to 5,000 cells were plated per well in 96-well plate. The plates were incubated at 37° C. for 48 or 72 hours in a humidified, 5% CO2 atmosphere. […] The blue formazan product formed by reduction of MTT by mitochondrial dehydrogenase in viable cells was then measured by absorbance at 570 nm.
(§2) The cytotoxicity of Artesunate was then investigated with two human colon cell lines, a normal colon cell line CCD-18 and a cancerous colon cell line Caco-2, using the well-established MTT assay. […] Dose-dependent assays were performed in 96-well format and IC50 values were determined by plotting the cell viability against Artesunate concentration (FIG. 11 and FIG. 12).
For orientation: Tetrazolium assays rely on reduction of a dye to a coloured formazan, in cell work by metabolically active cells.

The nature of series [2]: Deoxyribose degradation assay (free radical formation with Fe2+). To be noted: 200 μM, Fe2+ 5-25 μM, 10 minutes. As to the method:
This assay quantifies the formation of hydroxyl radicals or peroxyl radicals. The assay was carried out following a reported procedure. Briefly, 500 μL reaction volumes containing 10 mM 2-deoxyribose, 100 μM ascorbic acid, and various concentrations of Fe2+ were prepared. Degradation of 2-deoxyribose was initiated either by addition of 200 μM of hydrogen peroxide or 200 μM of Artesunate. The reaction was allowed to run for 10 minutes and then stopped by the addition of 500 μL of 10% (w/v) trichloroacetic acid (TCA) followed by 0.5 mL 1% 2-thiobarbituric acid (TBA). After heating at 80° C. for 15 minutes, the absorbance at 532 nm was measured.
To measure the concentration of free radical species generated by Artesunate reacting with Fe^2+, 2-deoxyribose degradation assays were formed (FIG. 6). Degradation of 2-deoxyribose by action of hydrogen peroxide is shown as a positive control and 2-deoxyribose alone is shown as a negative control (FIG. 6).

Series [3] can be described thus: Dichlorofluorescein assay (reactive oxygen species formation with Fe2+). To be noted: for reactive oxygen species formation, DCF fluorescence: 20 μM, Fe2+ 5-25 μM, 10 μM DCFH-DA, 30 min. Here is the method:
The assay was carried out following a reported procedure either in presence of hydrogen peroxide, Artesunate with and without Fe2+, and ART-HER2 conjugate with and without Fe2+[43]. In this assay non-fluorescent DCFH-DA (2′, 7′-Dichlorofluorescin diacetate treated with methanol and NaOH, as described in reference 43) is converted to a fluorescent derivative, known as dichlorofluorescein (DCF), in presence of an oxidizing agent (e.g. reactive oxygen species). By quantifying the concentration of fluorescent DCF, the concentration of oxidizing agent can be determined.
Formation of free radical species from the reaction of Artesunate with […] was additionally measured by dichlorofluorescein assays. Oxidation of 2′, 7′-Dichlorofluorescin diacetate (DCFH-DA) by reactive oxygen species generates dichlorofluorescein, which is fluorescent (˜520 nm).

For the next series, the system named is HCT116 cells. Briefly: Sulforhodamine B (SRB) colorimetric assay, HCT116 proliferation. As to conditions: Homo sapiens, HCT-116, 96-well format, read-out: IC50, inhibition of the proliferation of HCT116 cells. It counts as cell-based. Here is the method: Mouse B16-F10 melanoma cancer cells and human HCT116 colon cancer cells were grown in culture respectively in DMEM medium or McCoy's 5 A medium supplemented with 10% fetal bovine serum and 5% antibiotic in a 5% CO2 atmosphere at 37° C. Cultures were divided 1:2 every 48 h to an approximate cell density of 1.2 million cells per ml and used for experiments after 24 hours of growth in culture.
(Sulforhodamine B stains cellular protein and so reports cell mass.)

The test system of the next series is Caco-2 cells. The series can be described thus: MTT assay, Caco-2 cells (HER2-positive). Here is the method: as §1
(§3) The assay was carried out following a reported procedure. In brief, approximately 1,000 to 5,000 cells were plated per well in 96-well plate. The plates were incubated at 37° C. for 48 or 72 hours in a humidified, 5% CO2 atmosphere. Cells were incubated either with Artesunate or with ART-HER2 conjugate at various concentrations. To measure mitochondrial activity, a metric for cell viability, 15 μL of [3-{4, 5-dimethylthiazol-2-yl)-2, 5-diphenyltetrazolium bromide (MTT) was added to each well and incubated at 37° C. for 4 hours in a humidified, 5% CO2 atmosphere. After incubation, 100 μl of the solubilization solution/stop mix was added to each well. The blue formazan product formed by reduction of MTT by mitochondrial dehydrogenase in viable cells was then measured by absorbance at 570 nm.
as §2

The conditions of series [4]: reference [50]; cell line not given; read-out: IC50, anticancer ability of commonly used anticancer drugs; cited from earlier work.
The nature of series [5]: MTT assay, Caco-2 cells (HER2-positive). As to the method:
as §1, §3, §2

Take `C[C@H]1[C@H](OC(=O)CCC(=O)O)O[C@@H]2O[C@@]3(C)CC[C@H]4[C@H](C)CC[C@@H]1[C@@]24OO3` [Artesunate]: the pIC50 is approximately 5.25 in series [1]; approximately 6.20 with HCT116 cells; approximately 6.01 with Caco-2 cells (Homo sapiens, Caco-2, read-out: IC50, cytotoxicity against Caco-2 cells). For the same molecule, in series [2], the “free radical generation, 2-deoxyribose degradation (absorbance 532 nm)” value was “reacts with Fe^2+ to generate free radical species that are sufficient to degrade 2-deoxyribose”. The “reactive oxygen species formation, DCF fluorescence” value in series [3] is reported as “Fe^2+-dependent activation of dichlorofluorescein fluorescence”. In addition, in the series on Caco-2 cells (Caco-2), the “fold higher toxicity against Caco-2 cells compared to CCD-18 cells” value is approximately 5.7 fold.
Take `OO` [H2O2, hydrogen peroxide]: the “reactive oxygen species formation, DCF fluorescence” value in series [3] is “Fe^2+-dependent activation of dichlorofluorescein fluorescence”.
Turning to `O=c1[nH]cc(F)c(=O)[nH]1` [5-FU, 5-fluorouracil], in series [4], the pIC50 is approximately 4.82.
With `CC(C)C[C@H](NC(=O)[C@H](CO)NC(=O)[C@H](Cc1ccc(O)cc1)NC(=O)[C@H](CS)NC(=O)[C@H](CS)NC(=O)[C@H](CCCCN)NC(=O)CNC(=O)[C@H](CO)NC(=O)CNC(=O)CCC(=O)O[C@@H]1O[C@@H]2O[C@@]3(C)CC[C@H]4[C@H](C)CC[C@@H]([C@H]1C)[C@@]24OO3)C(N)=O` [ART-HER2 conjugate] (X1-GSGKCCYSL-NH2), the “free radical species formation in presence of Fe2+ (in words)” value in series [3] (2-deoxyribose degradation and dichlorofluorescein assays, increasing Fe2+) was “increases in presence of increasing levels of Fe^+”. The same molecule gave a pIC50 in series [5] of approximately 4.82.
`N.N.O=C([O-])C1(C(=O)[O-])CCC1.[Pt+2]` [carboplatin]: the pIC50 in series [4] was approximately 4.92.
